The supplement of paper PMC8149375

What was measured:
Details in all cases: treatment: drug + dasatinib (fixed dose, not stated); 5 days
[1] = system: 769-P; experiment: minimum viability across doses, drug + dasatinib, relative to DMSO (fraction); higher = less growth inhibition
Procedure: (§1)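 Primary HTS combination arm: 8 RCC cell lines treated with 8 doses (up to 10 uM) of each library drug plus a fixed dose of dasatinib (dose not stated) for 5 days; viability read by CellTiter-Glo and normalised to DMSO. GI50 was fitted with XLfit, AUC is the area under the dose-response curve, and minimum viability is the lowest fraction of DMSO viability across doses.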

[2] = system: CAKI-1; experiment: as above
Procedure: as §1

[3] = system: ACHN; experiment: as above
Procedure: as §1

[4] = system: 786-O; experiment: as above
Procedure: as §1

[5] = system: TK-10; experiment: as above
Procedure: as §1

[6] = system: UO-31; experiment: as above
Procedure: as §1

[7] = system: SN12C; experiment: as above
Procedure: as §1

[8] = system: A498; experiment: as above
Procedure: as §1

[9] = system: 769-P; experiment: GI50 of drug in presence of dasatinib; higher = less potent
Procedure: as §1

[10] = system: CAKI-1; experiment: as above
Procedure: as §1

[11] = system: ACHN; experiment: as above
Procedure: as §1

[12] = system: 786-O; experiment: as above
Procedure: as §1

[13] = system: TK-10; experiment: as above
Procedure: as §1

[14] = system: UO-31; experiment: as above
Procedure: as §1

[15] = system: SN12C; experiment: as above
Procedure: as §1

[16] = system: A498; experiment: as above
Procedure: as §1

[17] = system: 769-P; experiment: AUC of dose-response viability curve, drug + dasatinib, normalised to DMSO (arbitrary (AUC of normalised viability)); higher = less growth inhibition
Procedure: as §1

[18] = system: CAKI-1; experiment: as above
Procedure: as §1

[19] = system: ACHN; experiment: as above
Procedure: as §1

[20] = system: 786-O; experiment: as above
Procedure: as §1

[21] = system: TK-10; experiment: as above
Procedure: as §1

[22] = system: UO-31; experiment: as above
Procedure: as §1

[23] = system: SN12C; experiment: as above
Procedure: as §1

[24] = system: A498; experiment: as above
Procedure: as §1

Compound	GI50 of drug [11] [nM]	GI50 of drug [12] [nM]	minimum viability across doses [1]	minimum viability across doses [2]	minimum viability across doses [3]	minimum viability across doses [4]	minimum viability across doses [5]	minimum viability across doses [6]	minimum viability across doses [7]	minimum viability across doses [8]	GI50 of drug [9] [nM]	GI50 of drug [10] [nM]	GI50 of drug [13] [nM]	GI50 of drug [14] [nM]	GI50 of drug [15] [nM]	GI50 of drug [16] [µM]	AUC of dose-response viability curve [17]	AUC of dose-response viability curve [18]	AUC of dose-response viability curve [19]	AUC of dose-response viability curve [20]	AUC of dose-response viability curve [21]	AUC of dose-response viability curve [22]	AUC of dose-response viability curve [23]	AUC of dose-response viability curve [24]
Cc1ccc(NC(=O)c2cccc(C(C)(C)C#N)c2)cc1Nc1ccc2ncn(C)c(=O)c2c1 [AZ628] + Cc1nc(Nc2ncc(C(=O)Nc3c(C)cccc3Cl)s2)cc(N2CCN(CCO)CC2)n1 [dasatinib]	146	> 10000	0.214	0.0806	0.174	0.593	0.311	0.0219	0.348	0.409	2470	1120	1600	1580	> 10000	6.1	2.33	2.08	1.59	2.36	2.25	2.95	2.33	3.02
Cc1cc(Nc2nc(N[C@@H](C)c3ccc(F)cc3)c(C#N)cc2F)n[nH]1 [AZ 960] + Cc1nc(Nc2ncc(C(=O)Nc3c(C)cccc3Cl)s2)cc(N2CCN(CCO)CC2)n1 [dasatinib]	123	197	0.0281	0.00482	0.0473	0.00499	0.091	0.0082	0.127	0.246	442	146	882	496	651	0.987	1.77	1.43	1.48	1.41	2.17	2.11	1.91	2.64
CNC(=O)c1cccc(-c2ccc3c(N4CCOC[C@@H]4C)nc(N4CCOC[C@@H]4C)nc3n2)c1 [AZD2014] + Cc1nc(Nc2ncc(C(=O)Nc3c(C)cccc3Cl)s2)cc(N2CCN(CCO)CC2)n1 [dasatinib]	8.2	44	0.0727	0.0331	0.0544	0.0164	0.0635	0.00563	0.119	0.147	131	62.1	64	268	88.5	0.43	1.63	1.28	0.938	1.33	1.28	2.06	1.48	2.2
COc1cc(CCc2cc(NC(=O)c3ccc(N4C[C@@H](C)N[C@@H](C)C4)cc3)n[nH]2)cc(OC)c1 [AZD4547] + Cc1nc(Nc2ncc(C(=O)Nc3c(C)cccc3Cl)s2)cc(N2CCN(CCO)CC2)n1 [dasatinib]	314	3540	0.581	0.0512	0.14	0.106	0.314	0.016	0.061	0.542	> 10000	34	3000	4240	201	> 10	2.51	1.25	1.72	2.33	2.37	4.54	1.78	3.4
Cc1ncc(-c2ccnc(Nc3ccc(S(C)(=O)=O)cc3)n2)n1C(C)C [AZD5438] + Cc1nc(Nc2ncc(C(=O)Nc3c(C)cccc3Cl)s2)cc(N2CCN(CCO)CC2)n1 [dasatinib]	246	128	0.0188	0.0627	0.0173	0.00349	0.127	0.00804	0.0122	0.0116	474	238	529	367	1760	1.55	1.82	1.65	1.46	1.3	2.02	2.05	2.05	2.78
NC(=O)Nc1cc(-c2cccc(F)c2)sc1C(=O)N[C@H]1CCCNC1 [AZD7762] + Cc1nc(Nc2ncc(C(=O)Nc3c(C)cccc3Cl)s2)cc(N2CCN(CCO)CC2)n1 [dasatinib]	5.85	25	0.0473	0.00368	0.0359	0.00579	0.0198	0.0113	0.00591	0.0562	52.4	59.1	59.6	99.7	315	0.261	1.32	1.19	0.645	0.834	1.26	2.04	1.56	2.29
COc1ccc(-c2ccc3c(N4CCOC[C@@H]4C)nc(N4CCOC[C@@H]4C)nc3n2)cc1CO [AZD8055] + Cc1nc(Nc2ncc(C(=O)Nc3c(C)cccc3Cl)s2)cc(N2CCN(CCO)CC2)n1 [dasatinib]	< 3	7.26	0.0691	0.0255	0.044	0.018	0.053	0.00778	0.135	0.182	59.9	24	36.9	65.2	39.8	0.1	1.22	0.988	0.585	0.846	1.21	1.29	1.3	1.68
CN(C)C/C=C/C(=O)Nc1cc2c(Nc3ccc(F)c(Cl)c3)ncnc2cc1O[C@H]1CCOC1 [Afatinib (BIBW2992)] + Cc1nc(Nc2ncc(C(=O)Nc3c(C)cccc3Cl)s2)cc(N2CCN(CCO)CC2)n1 [dasatinib]	4.16	953	0.0233	0.0121	0.00184	0.00818	0.0817	0.00619	0.0274	0.00955	29.1	241	72.5	885	2300	1.49	1.31	1.57	1.02	1.92	1.58	1.88	2.02	2.54
S=C(NCc1ccc2c(c1)OCO2)N1CCN(c2ncnc3c2oc2ccccc23)CC1 [Amuvatinib (MP-470)] + Cc1nc(Nc2ncc(C(=O)Nc3c(C)cccc3Cl)s2)cc(N2CCN(CCO)CC2)n1 [dasatinib]	1390	1310	0.282	0.57	0.156	0.0475	0.263	0.0639	0.0599	0.245	1830	> 10000	2920	2680	1970	4.38	2.2	2.31	1.9	1.94	2.39	3.23	2.03	3.02
CCN1CCN(C(=O)Cc2ccc(Nc3ncc(F)c(Nc4ccc(C(=O)Nc5ccccc5Cl)cc4)n3)cc2)CC1 [Aurora A Inhibitor I] + Cc1nc(Nc2ncc(C(=O)Nc3c(C)cccc3Cl)s2)cc(N2CCN(CCO)CC2)n1 [dasatinib]	130	164	0.0246	0.00201	0.0307	0.0991	0.275	0.0547	0.00416	0.53	652	281	1010	552	1190	8.98	1.98	1.63	1.53	1.57	2.18	2.58	2.09	3.16

Now from value to compound, other results behind:

GI50 of drug [11] [nM]	GI50 of drug [12] [nM]	Compound	minimum viability across doses [1]	minimum viability across doses [2]	minimum viability across doses [3]	minimum viability across doses [4]	minimum viability across doses [5]	minimum viability across doses [6]	minimum viability across doses [7]	minimum viability across doses [8]	GI50 of drug [9] [nM]	GI50 of drug [10] [nM]	GI50 of drug [13] [nM]	GI50 of drug [14] [nM]	GI50 of drug [15] [nM]	GI50 of drug [16] [µM]	AUC of dose-response viability curve [17]	AUC of dose-response viability curve [18]	AUC of dose-response viability curve [19]	AUC of dose-response viability curve [20]	AUC of dose-response viability curve [21]	AUC of dose-response viability curve [22]	AUC of dose-response viability curve [23]	AUC of dose-response viability curve [24]
1230	1240	S=C(NCc1ccc2c(c1)OCO2)N1CCN(c2ncnc3c2oc2ccccc23)CC1 [Amuvatinib (MP-470)_R2] + Cc1nc(Nc2ncc(C(=O)Nc3c(C)cccc3Cl)s2)cc(N2CCN(CCO)CC2)n1 [dasatinib]	0.219	0.583	0.17	0.0149	0.26	0.0367	0.0319	0.251	2550	> 10000	2640	2840	1630	3.37	2.38	2.48	1.85	1.87	2.24	3.36	2.06	2.86
6530	> 10000	CS(=O)(=O)O.N#CC1(c2ccc(NC(=O)c3cccnc3NCc3ccncc3)cc2)CCCC1 [Apatinib (YN968D1)] + Cc1nc(Nc2ncc(C(=O)Nc3c(C)cccc3Cl)s2)cc(N2CCN(CCO)CC2)n1 [dasatinib]	0.49	0.572	0.389	0.624	0.636	0.988	0.656	0.874	9470	> 10000	> 10000	> 10000	> 10000	> 10	2.43	2.39	2.18	2.64	2.5	4.78	2.45	3.76
1990	> 10000	O=C1C(=O)N(Cc2ccc(Cl)c(Cl)c2)c2ccccc21 [Apoptosis Activator 2] + Cc1nc(Nc2ncc(C(=O)Nc3c(C)cccc3Cl)s2)cc(N2CCN(CCO)CC2)n1 [dasatinib]	0.486	0.187	0.295	0.0758	0.454	0.211	0.265	0.411	8610	2230	7390	9070	4600	8.37	2.46	2.19	1.92	1.72	2.34	4.31	2.47	3.56
2980	> 10000	CNC(=O)c1ccccc1Sc1ccc2c(/C=C/c3ccccn3)n[nH]c2c1 [Axitinib] + Cc1nc(Nc2ncc(C(=O)Nc3c(C)cccc3Cl)s2)cc(N2CCN(CCO)CC2)n1 [dasatinib]	0.159	0.162	0.271	0.635	0.715	0.392	0.262	0.457	1400	439	> 10000	7850	622	7.69	2.02	1.8	2.14	2.8	2.91	3.37	2.08	3.26
